Experimental findings from patent EP3382005A2, “EX VIVO MODEL FOR NEURODEGENERATIVE DISEASES” (Neuro-Bio Ltd, priority 2017, dated 2018) are described below.

The structures appear in SMILES notation. Square brackets hold non-standard residues; d marks the D form. Peptide text beside a SMILES is read from it. Phe(4-COOH) = N[C@@H](Cc1ccc(C(=O)O)cc1)C(=O)O; 2Nal = N[C@@H](Cc1ccc2ccccc2c1)C(=O)O; cisHyp = O=C(O)[C@@H]1C[C@H](O)CN1

Data set [1] deals with T1, alpha7 nicotinic receptor (Rattus norvegicus, UniProt Q05941).
T1 construct: endogenous in cells; host or cells: PC12 cells
T1 sequence (Q05941 23-502): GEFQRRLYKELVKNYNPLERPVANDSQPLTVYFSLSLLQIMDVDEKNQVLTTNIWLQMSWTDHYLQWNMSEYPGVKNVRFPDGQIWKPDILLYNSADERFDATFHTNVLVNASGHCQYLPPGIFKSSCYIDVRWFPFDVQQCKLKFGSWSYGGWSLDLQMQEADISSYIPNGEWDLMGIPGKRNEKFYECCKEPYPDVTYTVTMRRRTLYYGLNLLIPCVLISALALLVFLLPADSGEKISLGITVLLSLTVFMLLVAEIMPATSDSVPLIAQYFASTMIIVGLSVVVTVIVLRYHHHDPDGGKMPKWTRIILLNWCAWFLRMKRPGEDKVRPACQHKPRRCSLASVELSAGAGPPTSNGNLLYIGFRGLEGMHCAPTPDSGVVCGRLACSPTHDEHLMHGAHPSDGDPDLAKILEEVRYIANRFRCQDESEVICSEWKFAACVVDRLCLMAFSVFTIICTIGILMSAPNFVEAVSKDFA
The data set is described as follows: Calcium influx test in PC12 cells. The class given is cell-based. The conditions noted are these: compound alone, higher doses 1 µM to 10 µM.

The subject of a further data set is PC12 cells. The experiment in a line: Cell viability test.

Turning to `CC(=O)N[C@@H](Cc1ccc2ccccc2c1)C(=O)N[C@@H](Cc1ccc(C(=O)O)cc1)C(=O)N1C[C@@H](O)C[C@H]1C(N)=O` [Tri01, 4-((S)-2-((S)-2-acetamido-3-(naphthalen-2-yl)propanamido)-3-((2S,4S)-2-carbamoyl-4-hydroxypyrrolidin-1-yl)-3-oxopropyl)benzoate] (Ac-[2Nal]-[Phe(4-COOH)]-[cisHyp]-NH2), in data set [1], the “calcium influx by the specific alpha7 agonist PNU282987” value is “inactive”. The PC12 cell viability result is listed as “toxic in a concentration-dependent manner” in the data set on PC12 cells (compound alone, 0.1µM to 10µM) and “potentiates the toxicity induced by T30” with PC12 cells (in the presence of T30 1µM).
